# Tests used:
# Type in all cases: in vivo
# [1] = tested on: Hamlin orange; assay: Fruit pull-force reduction after spraying trees, Hamlin orange; conditions: for % reduction in fruit pull force, day 5: day 5, mean
# Protocol: Data are the means of 6 replicate branches, with 10 fruit/branch. Bars above and below the means indicate standard error of the mean.
# (§1) Solutions of COR were prepared that contained 200 mg/L or 300 mg/L of COR dissolved in water and 0.125% Kinetic®. The solution was sprayed until “run-off,” typically about 5 L/tree. […] Under field conditions, canopies should not be sprayed if rainfall is anticipated within 24 hours. For comparison purposes, 200 mg/L to 400 mg/L Ethrel® solutions and a 0.125% Kinetic® solution were applied to trees. After several days, usually 3 to 10, differences in fruit pull-force were measured between COR and other treatments and is an indication of fruit loosening ability. […] Differences in fruit drop were also measured by counting or weighing dropped fruit.
# [2] = tested on: Valencia orange; assay: Fruit drop after spraying trees, Valencia orange; conditions: for % fruit drop, day 5: day 5, mean
# Protocol: (§2) Data are the means of 10 replicate branches, with 10 fruit/branch. Bars above and below the means indicate standard error of the mean.
# as §1
# [3] = tested on: Valencia orange; assay: Fruit pull-force reduction after spraying trees, Valencia orange; conditions: for % reduction in fruit pull force, day 5: 0.125% Kinetic, day 5, mean
# Protocol: as §2, §1
# [4] = COR compositions 200 or 300 mg/L
Structure (SMILES),"% reduction in fruit pull force, day 5 ([1]; 200 mg/L spray to run-off) [%]","% reduction in fruit pull force, day 5 ([1]; 300 mg/L spray to run-off) [%]","reduction of fruit pull-force [1, 4]","% fruit drop, day 5 ([2]; 200 mg/L spray to run-off) [%]","% fruit drop, day 5 ([2]; 300 mg/L spray to run-off) [%]","percentage of fruit drop as compared to Ethrel and the control [2, 4]","% reduction in fruit pull force, day 5 ([3]; 200 mg/L spray to run-off) [%]","% reduction in fruit pull force, day 5 ([3]; 300 mg/L spray to run-off) [%]","reduction of fruit pull-force [3, 4]"
"CC[C@H]1C=C(C(=O)N[C@@]2(C(=O)O)C[C@@H]2CC)[C@H]2CCC(=O)[C@H]2C1 [COR, Coronatine]",55,55.5,approximately 95%,50,63.3,substantially increased,96.1,96.3,approximately 95%
"O=P(O)(O)CCCl [Ethrel ®, 2-chloroethyl phosphonic acid]",64,,,13.3,,,71.7,,

# Source: US6511939B1, “Coronatine as an abscission agent” (priority 2001, dated 2003)
